Holding throughout (assay type): in vivo, human
The test system of experiment [1] is patients with Retinitis Pigmentosa. Kind of experiment: Clinical observation, retinitis pigmentosa patients. The settings on record: seven patients: three 1 gr 2 times per day oral, four 2% eye drops 3 times per day. The method, then: The invention will be even further illustrated by the description of the clinical examples which follow and which, of course, are not limiting in nature. In these examples, the active ingredient, the N-acetyl-DL-leucine, was administered continuously (i.e., at least once a day) in oral or topical form, in an amount of 2 gr per day in the case of the oral form and 2% in the case of eye drops. This disorder corresponds to a dystrophy in the photoreceptors (cones and rods). It is characterized by the appearance of night blindness in infancy or adolescence, progressive contractions of the equatorial annular peripheral visual filed and results in a substantial loss in visual acuity or even blindness by adulthood. The N-acetyl-DL-leucine was used and induced an improvement of visual function: Seven patients were treated: three of them received 1 gr 2 times per day via oral administration; and four of them were subjected to a topical administration (2% eye drops), 3 times per day. All of them noticed an improvement of their visual acuity and visual field.

Experiment [2] has as its system patients with Starpardt's Disease. Nature of the experiment: Clinical observation, Stargardt's disease twin patients. The settings on record: eye drops; one of two twin patients. The method, then:
The invention will be even further illustrated by the description of the clinical examples which follow and which, of course, are not limiting in nature. In these examples, the active ingredient, the N-acetyl-DL-leucine, was administered continuously (i.e., at least once a day) in oral or topical form, in an amount of 2 gr per day in the case of the oral form and 2% in the case of eye drops. Two twin patients treated with N-acetyl-DL-leucine in the form of eye drops noticed an improvement of their visual acuity by 1/10 for one of them, and by 2/10 to 3/10 for the […].

The test system of experiment [3] is patients with a macular degeneration. Kind of experiment: Clinical observation, age-related or myopia-related macular degeneration. As to conditions: eleven patients; eye drops or tablets. How it is done:
(§1) The invention will be even further illustrated by the description of the clinical examples which follow and which, of course, are not limiting in nature. In these examples, the active ingredient, the N-acetyl-DL-leucine, was administered continuously (i.e., at least once a day) in oral or topical form, in an amount of 2 gr per day in the case of the oral form and 2% in the case of eye drops. Eleven patients with a macular degeneration which were treated with N-acetyl-DL-leucine (eye drops or tablets) noticed an improvement of their visual acuity.

In experiment [4] the test system is patients with known glaucoma. Nature of the experiment: Clinical observation, glaucomatous neuropathy or glaucoma. How it is done: as §1, with “Patients” for “Eleven patients”, “with known glaucoma experienced” for “with”, “decrease in their occular tension, and” for “macular degeneration which were treated with N-acetyl-DL-leucine (eye drops or tablets) noticed”, “acuity and visual field in a very short time as soon as the treatment was administrated. […] IV) Ametropia.” for “acuity.”

Another experiment has as its system patients with myopia. Nature of the experiment: Clinical observation, myopia. The settings on record: seven patients; eye drops. How it is done: (§2) The invention will be even further illustrated by the description of the clinical examples which follow and which, of course, are not limiting in nature. In these examples, the active ingredient, the N-acetyl-DL-leucine, was administered continuously (i.e., at least once a day) in oral or topical form, in an amount of 2 gr per day in the case of the oral form and 2% in the case of eye drops. More particularly, but not exclusively, it relates to eyedrops composed of N-acetyl-DL-leucine, which are intended for improving (i.e., in the present case, decreasing) the effects of presbyopia, myopia, hypermetropia and astigmatism, for stabilizing them or even for reversing the evolutive course thereof. • Myopia: seven patients were evaluated and received the N-acetyl-DL-leucine in the form of eye drops. • Result: in addition to the improvement of their visual acuity, the visual field, the refractive value was reduced. One can deduce therefrom that the N-acetyl-DL-leucine not only improves vision but also treats myopia. • Presbyopia: fourteen patients received the N-acetyl-DL-leucine in the form of eye drops and experienced an improvement of their near vision and a decrease in presbyopia. […]

Another experiment relates to patients with presbyopia. Nature of the experiment: Clinical observation, presbyopia. The settings on record: fourteen patients; eye drops. The method, then: as §2
Experiment [5] has as its system patients with hypermetropia. Kind of experiment: Clinical observation, hypermetropia. As to conditions: eye drops. The method, then:
as §2

For another experiment, the system named is astigmatic subjects. Kind of experiment: Clinical observation, astigmatism. As to conditions: eye drops. The method, then: as §2
Experiment [6] has as its system patients with visual difficulties at night (hemeralopia). Nature of the experiment: Clinical observation, night vision (hemeralopia). As to conditions: all the patients with hemeralopia. How it is done:
The invention will be even further illustrated by the description of the clinical examples which follow and which, of course, are not limiting in nature. In these examples, the active ingredient, the N-acetyl-DL-leucine, was administered continuously (i.e., at least once a day) in oral or topical form, in an amount of 2 gr per day in the case of the oral form and 2% in the case of eye drops.

Experiment [7] has as its system "normal" patients without ocular pathology (aging individuals). Nature of the experiment: Clinical observation, age-related physiological vision decline / normal patients. As to conditions: in many cases; absence of any occular pathology. The method, then: The invention will be even further illustrated by the description of the clinical examples which follow and which, of course, are not limiting in nature. In these examples, the active ingredient, the N-acetyl-DL-leucine, was administered continuously (i.e., at least once a day) in oral or topical form, in an amount of 2 gr per day in the case of the oral form and 2% in the case of eye drops. […] In many cases, N-acetyl-DL-leucine improved visual function (visual acuity, contrast vision and visual field) in the absence of any occular pathology.

With `CC(=O)NC(CC(C)C)C(=O)O` (racemic) [N-acetyl-DL-leucine], the visual acuity result in experiment [1] is listed as “improvement”; in experiment [3], “improvement”; in experiment [4] (oral route or topical route (eye drops)) it was “marked improvement”; in the experiment with patients with myopia, “improvement”; in the experiment with astigmatic subjects, “improvement”. In addition, the visual field result is recorded as “improvement” in [1], “regression of the deficiency” in [4] (oral route or eye drops) and “improvement” with patients with myopia. The “improvement of visual acuity” value in experiment [2] is 1/10. In [4] (in a very short time as soon as the treatment was administrated), the occular tension entry is given as “decrease”. Further, the refractive value entry with patients with myopia was “reduced”. In addition, in the experiment on patients with presbyopia, the near vision entry is “improvement”. In addition, the presbyopia entry with patients with presbyopia was “decrease”. Besides, the “observations in hypermetropia (near vision, ametropia)” value in experiment [5] was “the same observations as for presbyopia”. Also, the night vision result in [6] is on record as “greatly improved”. Also, in experiment [7], the “visual function (visual acuity, contrast vision and visual field)” value is given as “improved”.

(Values after patent US9155719B2, “N-acetyl-DL-leucine, neuroprotective and retinoprotective medicament” (priority 2010, dated 2015).)
